Data as given in BigSolDB 2.1.

Cc1cnc(C(=O)O)cn1
solubility (mole fraction)
Conditions | 273.15 K | 278.15 K | 283.15 K | 288.15 K | 293.15 K | 298.15 K | 303.15 K | 308.15 K | 313.15 K
in 1,4-dioxane | – | – | – | 1.88e-05 | 2.16e-05 | 2.48e-05 | 2.84e-05 | 3.29e-05 | 3.84e-05
in 2-butanone | 5.8e-06 | 6.8e-06 | 8e-06 | 9.3e-06 | 1.06e-05 | 1.21e-05 | 1.39e-05 | 1.58e-05 | 1.79e-05
in acetone | 6.7e-06 | 8e-06 | 9.3e-06 | 1.07e-05 | 1.21e-05 | 1.39e-05 | 1.56e-05 | 1.78e-05 | 2e-05
in acetonitrile | 2.48e-06 | 2.92e-06 | 3.44e-06 | 4.01e-06 | 4.6e-06 | 5.34e-06 | 6.05e-06 | 6.88e-06 | 7.79e-06
in ethanol | 1.09e-05 | 1.27e-05 | 1.49e-05 | 1.71e-05 | 1.97e-05 | 2.25e-05 | 2.57e-05 | 2.93e-05 | 3.33e-05
in ethyl acetate | 4.31e-06 | 5.04e-06 | 5.82e-06 | 6.63e-06 | 7.5e-06 | 8.4e-06 | 9.45e-06 | 1.07e-05 | 1.2e-05
in isopropanol | 7.8e-06 | 9.1e-06 | 1.04e-05 | 1.19e-05 | 1.36e-05 | 1.56e-05 | 1.78e-05 | 2.03e-05 | 2.28e-05
in methanol | 8.5e-06 | 1e-05 | 1.16e-05 | 1.36e-05 | 1.56e-05 | 1.77e-05 | 2.01e-05 | 2.29e-05 | 2.57e-05
in n-butanol | 9.4e-06 | 1.08e-05 | 1.25e-05 | 1.43e-05 | 1.65e-05 | 1.9e-05 | 2.19e-05 | 2.51e-05 | 2.87e-05
in n-propanol | 1e-05 | 1.17e-05 | 1.36e-05 | 1.58e-05 | 1.82e-05 | 2.07e-05 | 2.34e-05 | 2.68e-05 | 3.06e-05
in toluene | 9.7e-07 | 1.1e-06 | 1.25e-06 | 1.42e-06 | 1.65e-06 | 1.89e-06 | 2.18e-06 | 2.5e-06 | 2.89e-06
in water | 3.32e-06 | 3.83e-06 | 4.46e-06 | 5.16e-06 | 5.86e-06 | 6.74e-06 | 7.7e-06 | 8.83e-06 | 1.01e-05
